Test results: US20250073340A1, “SPIROCYCLIC MDM2 MODULATOR AND USES THEREOF” (Newave Pharmaceutical Inc., priority 2021, published 2025)

Columns and labels:
[1] = tested on: BCL-2-dependent acute lymphoblastic leukemia (ALL) cell line RS4;11 overexpressing Bcl-2 G101V; assay: cells; format: cell-based; settings: Homo sapiens, RS4-11; about 72 hours, ATPlite luminescence; read-out: RS4;11-G101V IC50
In short: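 About 1×10^4 cells per well treated with compound for about 72 hours in medium with 5% FBS or 10% normal human serum. Viability from ATP-based luminescence (ATPlite) after lysis; IC50 derived from dose range.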

MDM2 = MDM2 (Homo sapiens (Human), UniProt Q00987); assay: In vitro MDM2 HTRF assay (inhibition of p53-MDM2 interaction); format: binding; settings: GST-MDM2 / biotinylated p53 peptide
MDM2, sequence (Q00987 whole entry): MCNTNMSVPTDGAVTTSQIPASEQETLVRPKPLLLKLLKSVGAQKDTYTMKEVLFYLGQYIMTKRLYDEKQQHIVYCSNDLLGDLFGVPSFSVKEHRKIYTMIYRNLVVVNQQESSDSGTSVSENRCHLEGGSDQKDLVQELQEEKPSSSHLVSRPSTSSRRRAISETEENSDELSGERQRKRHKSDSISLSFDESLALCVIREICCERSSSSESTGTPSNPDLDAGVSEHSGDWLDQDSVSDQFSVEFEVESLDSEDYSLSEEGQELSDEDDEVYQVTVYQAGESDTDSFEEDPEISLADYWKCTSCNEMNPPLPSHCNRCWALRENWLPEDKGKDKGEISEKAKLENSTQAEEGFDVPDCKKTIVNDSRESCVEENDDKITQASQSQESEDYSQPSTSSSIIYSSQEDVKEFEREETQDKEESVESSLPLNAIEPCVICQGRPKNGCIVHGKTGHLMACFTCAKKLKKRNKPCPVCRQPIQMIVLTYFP

Compound	IC50 [1] [nM]	IC50 (MDM2) [nM]
COc1cc(C(=O)N[C@H]2CCC[C@H](C#Cc3cccc4c3CN(C3CCC(=O)NC3=O)C4=O)C2)ccc1NC(=O)[C@@H]1N[C@@H](CC(C)(C)C)[C@@]2(CNc3cc(Cl)ccc32)[C@H]1c1cccc(Cl)c1F (stereo partly drawn) [Example 35, (2′S,3S,4′S,5′R)-6-chloro-4′-(3-chloro-2-fluorophenyl)-2′-(2,2-dimethylpropyl)-N-(4-{[(1S,3S)-3-{2-[2-(2,6-dioxopiperidin-3-yl)-1-oxo-3H-isoindol-4-yl]ethynyl}cyclohexyl]carbamoyl}-2-methoxyphenyl)-1,2-dihydrospiro[indole-3,3′-pyrrolidine]-5′-carboxamide]	82.7	3.74
COc1cc(C(=O)N2CCCC[C@@H]2CCC#Cc2cccc3c2CN([C@@H]2CCC(=O)NC2=O)C3=O)ccc1NC(=O)[C@@H]1N[C@@H](CC(C)(C)C)[C@@]2(CNc3cc(Cl)ccc32)[C@H]1c1cccc(Cl)c1F [Example 36, (2′S,3S,4′S,5′R)-6-chloro-4′-(3-chloro-2-fluorophenyl)-2′-(2,2-dimethylpropyl)-N-{4-[(2R)-2-(4-{2-[(3R)-2,6-dioxopiperidin-3-yl]-1-oxo-3H-isoindol-4-yl}but-3-yn-1-yl)piperidine-1-carbonyl]-2-methoxyphenyl}-1,2-dihydrospiro[indole-3,3′-pyrrolidine]-5′-carboxamide]	35.4	2.03
COc1cc(C(=O)N2CCCC[C@@H]2CCC#Cc2cccc3c2CN([C@H]2CCC(=O)NC2=O)C3=O)ccc1NC(=O)[C@@H]1N[C@@H](CC(C)(C)C)[C@@]2(CNc3cc(Cl)ccc32)[C@H]1c1cccc(Cl)c1F [Example 37, (2′S,3S,4′S,5′R)-6-chloro-4′-(3-chloro-2-fluorophenyl)-2′-(2,2-dimethylpropyl)-N-{4-[(2R)-2-(4-{2-[(3S)-2,6-dioxopiperidin-3-yl]-1-oxo-3H-isoindol-4-yl}but-3-yn-1-yl)piperidine-1-carbonyl]-2-methoxyphenyl}-1,2-dihydrospiro[indole-3,3′-pyrrolidine]-5′-carboxamide]	34.4	1.95
COc1cc(C(=O)N2CCCC[C@H]2CCC#Cc2cccc3c2CN([C@@H]2CCC(=O)NC2=O)C3=O)ccc1NC(=O)[C@@H]1N[C@@H](CC(C)(C)C)[C@@]2(CNc3cc(Cl)ccc32)[C@H]1c1cccc(Cl)c1F [Example 38, (2′S,3S,4′S,5′R)-6-chloro-4′-(3-chloro-2-fluorophenyl)-2′-(2,2-dimethylpropyl)-N-{4-[(2S)-2-(4-{2-[(3R)-2,6-dioxopiperidin-3-yl]-1-oxo-3H-isoindol-4-yl}but-3-yn-1-yl)piperidine-1-carbonyl]-2-methoxyphenyl}-1,2-dihydrospiro[indole-3,3′-pyrrolidine]-5′-carboxamide]	67.9	3.82
COc1cc(C(=O)N2CCCC[C@H]2CCC#Cc2cccc3c2CN([C@H]2CCC(=O)NC2=O)C3=O)ccc1NC(=O)[C@@H]1N[C@@H](CC(C)(C)C)[C@@]2(CNc3cc(Cl)ccc32)[C@H]1c1cccc(Cl)c1F [Example 39, (2′S,3S,4′S,5′R)-6-chloro-4′-(3-chloro-2-fluorophenyl)-2′-(2,2-dimethylpropyl)-N-{4-[(2S)-2-(4-{2-[(3S)-2,6-dioxopiperidin-3-yl]-1-oxo-3H-isoindol-4-yl}but-3-yn-1-yl)piperidine-1-carbonyl]-2-methoxyphenyl}-1,2-dihydrospiro[indole-3,3′-pyrrolidine]-5′-carboxamide]	127	2.67
COc1cc(C(=O)N[C@@H]2CCCN(CC#Cc3cccc4c3CN(C3CCC(=O)NC3=O)C4=O)C2)ccc1NC(=O)[C@@H]1N[C@@H](CC(C)(C)C)[C@@]2(CNc3cc(Cl)ccc32)[C@H]1c1cccc(Cl)c1F (stereo partly drawn) [Example 50, (2′S,3S,4′S,5′R)-6-chloro-4′-(3-chloro-2-fluorophenyl)-2′-(2,2-dimethylpropyl)-N-(4-{[(3R)-1-{3-[2-(2,6-dioxopiperidin-3-yl)-1-oxo-3H-isoindol-4-yl]prop-2-yn-1-yl}piperidin-3-yl]carbamoyl}-2-methoxyphenyl)-1,2-dihydrospiro[indole-3,3′-pyrrolidine]-5′-carboxamide]	23.5	1.59

Now from value to molecule:

IC50 [1] [nM]	IC50 (MDM2) [nM]	Compound
99.1	4.51	COc1cc(C(=O)N2CCC3(CC2)CC(C#Cc2cccc4c2CN(C2CCC(=O)NC2=O)C4=O)C3)ccc1NC(=O)[C@@H]1N[C@@H](CC(C)(C)C)[C@@]2(CNc3cc(Cl)ccc32)[C@H]1c1cccc(Cl)c1F (stereo partly drawn) [Example 42, (2′S,3S,4′S,5′R)-6-chloro-4′-(3-chloro-2-fluorophenyl)-N-(4-(2-((2-(2,6-dioxopiperidin-3-yl)-1-oxoisoindolin-4-yl)ethynyl)-7-azaspiro[3.5]nonane-7-carbonyl)-2-methoxyphenyl)-2′-neopentylspiro[indoline-3,3′-pyrrolidine]-5′-carboxamide]
28.3	4.67	COc1cc(C(=O)N2CCC3(CC2)C[C@H]3C#Cc2cccc3c2CN(C2CCC(=O)NC2=O)C3=O)ccc1NC(=O)[C@@H]1N[C@@H](CC(C)(C)C)[C@@]2(CNc3cc(Cl)ccc32)[C@H]1c1cccc(Cl)c1F (stereo partly drawn) [Example 43, (2′S,3S,4′S,5′R)-6-chloro-4′-(3-chloro-2-fluorophenyl)-2′-(2,2-dimethylpropyl)-N-{4-[(1R)-1-{2-[2-(2,6-dioxopiperidin-3-yl)-1-oxo-3H-isoindol-4-yl]ethynyl}-6-azaspiro[2.5]octane-6-carbonyl]-2-methoxyphenyl}-1,2-dihydrospiro[indole-3,3′-pyrrolidine]-5′-carboxamide]
13.1	1.83	COc1cc(C(=O)N2CCC3(CC2)C[C@@H]3C#Cc2cccc3c2CN(C2CCC(=O)NC2=O)C3=O)ccc1NC(=O)[C@@H]1N[C@@H](CC(C)(C)C)[C@@]2(CNc3cc(Cl)ccc32)[C@H]1c1cccc(Cl)c1F (stereo partly drawn) [Example 44, (2′S,3S,4′S,5′R)-6-chloro-4′-(3-chloro-2-fluorophenyl)-2′-(2,2-dimethylpropyl)-N-{4-[(1S)-1-{2-[2-(2,6-dioxopiperidin-3-yl)-1-oxo-3H-isoindol-4-yl]ethynyl}-6-azaspiro[2.5]octane-6-carbonyl]-2-methoxyphenyl}-1,2-dihydrospiro[indole-3,3′-pyrrolidine]-5′-carboxamide]
12.4	1.21	COc1cc(C(=O)N2CC[C@H](C#Cc3cccc4c3CN(C3CCC(=O)NC3=O)C4=O)C2)ccc1NC(=O)[C@@H]1N[C@@H](CC(C)(C)C)[C@@]2(CNc3cc(Cl)ccc32)[C@H]1c1cccc(Cl)c1F (stereo partly drawn) [Example 48, (2′S,3S,4′S,5′R)-6-chloro-4′-(3-chloro-2-fluorophenyl)-2′-(2,2-dimethylpropyl)-N-{4-[(3R)-3-{2-[2-(2,6-dioxopiperidin-3-yl)-1-oxo-3H-isoindol-4-yl]ethynyl}pyrrolidine-1-carbonyl]-2-methoxyphenyl}-1,2-dihydrospiro[indole-3,3′-pyrrolidine]-5′-carboxamide]
14.1	1.05	COc1cc(C(=O)N2CC[C@@H](C#Cc3cccc4c3CN(C3CCC(=O)NC3=O)C4=O)C2)ccc1NC(=O)[C@@H]1N[C@@H](CC(C)(C)C)[C@@]2(CNc3cc(Cl)ccc32)[C@H]1c1cccc(Cl)c1F (stereo partly drawn) [Example 49, (2′S,3S,4′S,5′R)-6-chloro-4′-(3-chloro-2-fluorophenyl)-2′-(2,2-dimethylpropyl)-N-{4-[(3S)-3-{2-[2-(2,6-dioxopiperidin-3-yl)-1-oxo-3H-isoindol-4-yl]ethynyl}pyrrolidine-1-carbonyl]-2-methoxyphenyl}-1,2-dihydrospiro[indole-3,3′-pyrrolidine]-5′-carboxamide]
18.3	1.42	COc1cc(C(=O)N2CCN(CC#Cc3cccc4c3CN(C3CCC(=O)NC3=O)C4=O)CC2)ccc1NC(=O)[C@@H]1N[C@@H](CC(C)(C)C)[C@@]2(CNc3cc(Cl)ccc32)[C@H]1c1cccc(Cl)c1F (stereo partly drawn) [Example 51, (2′S,3S,4′S,5′R)-6-chloro-4′-(3-chloro-2-fluorophenyl)-2′-(2,2-dimethylpropyl)-N-[4-(4-{3-[2-(2,6-dioxopiperidin-3-yl)-1-oxo-3H-isoindol-4-yl]prop-2-yn-1-yl}piperazine-1-carbonyl)-2-methoxyphenyl]-1,2-dihydrospiro[indole-3,3′-pyrrolidine]-5′-carboxamide]
1.09	23.4	COc1cc(C(=O)N2CCC3(CC2)C[C@@H]3C#Cc2cccc3c2CN([C@H]2CCC(=O)NC2=O)C3=O)ccc1NC(=O)[C@@H]1N[C@@H](CC(C)(C)C)[C@@]2(CNc3cc(C(F)(F)F)ncc32)[C@H]1c1cccc(Cl)c1F [Example 56, (2S,3S,4S,5R)-4-(3-chloro-2-fluorophenyl)-N-(4-((S)-1-((2-((S)-2,6-dioxopiperidin-3-yl)-1-oxoisoindolin-4-yl)ethynyl)-6-azaspiro[2.5]octane-6-carbonyl)-2-methoxyphenyl)-2-neopentyl-6′-(trifluoromethyl)-1′,2′-dihydrospiro[pyrrolidine-3,3′-pyrrolo[3,2-c]pyridine]-5-carboxamide]
